Laboratory results from PMC4929832 (Nature, 2016).

Columns and labels:
H1 receptor = H1 receptor (Homo sapiens, UniProt P35367); experiment: H1 receptor calcium assay; format: cell-based
DYRK1A = DYRK1A (Homo sapiens, UniProt Q13627); experiment: kinase panel; format: biochemical
EPH-A4 = EPH-A4 (Homo sapiens, UniProt P54764); experiment: kinase panel; format: biochemical
CDK6-CYCLIND3 = CDK6-CYCLIND3 (Homo sapiens, UniProt Q00534); experiment: kinase panel; format: biochemical
IRAK1 = IRAK1 (Homo sapiens, UniProt P51617); experiment: kinase panel; format: biochemical
GRK6 = GRK6 (Homo sapiens, UniProt P43250); experiment: kinase panel; format: biochemical
GRK6, sequence (P43250 whole entry): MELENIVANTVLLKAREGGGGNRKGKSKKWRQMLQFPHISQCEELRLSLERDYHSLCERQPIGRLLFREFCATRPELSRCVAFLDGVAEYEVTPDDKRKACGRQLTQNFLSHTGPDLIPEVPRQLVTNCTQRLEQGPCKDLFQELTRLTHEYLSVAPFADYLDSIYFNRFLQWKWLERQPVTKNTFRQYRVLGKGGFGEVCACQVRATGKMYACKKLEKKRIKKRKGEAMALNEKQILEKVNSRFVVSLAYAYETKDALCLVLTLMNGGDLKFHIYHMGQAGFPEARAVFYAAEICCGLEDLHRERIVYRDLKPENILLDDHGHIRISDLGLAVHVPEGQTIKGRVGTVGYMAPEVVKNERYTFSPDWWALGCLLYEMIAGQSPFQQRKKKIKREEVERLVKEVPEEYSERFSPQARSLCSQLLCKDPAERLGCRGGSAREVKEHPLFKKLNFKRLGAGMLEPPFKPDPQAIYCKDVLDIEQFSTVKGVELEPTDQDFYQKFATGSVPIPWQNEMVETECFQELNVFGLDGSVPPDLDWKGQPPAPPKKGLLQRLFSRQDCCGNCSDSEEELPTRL

FGFR3 = FGFR3 (Homo sapiens, UniProt P22607); experiment: kinase panel; format: biochemical
PPARgamma Receptor = PPARgamma Receptor (Homo sapiens, UniProt P37231); experiment: PPARgamma Receptor agonist assay; format: cell-based
PPARgamma Receptor, sequence (P37231 whole entry): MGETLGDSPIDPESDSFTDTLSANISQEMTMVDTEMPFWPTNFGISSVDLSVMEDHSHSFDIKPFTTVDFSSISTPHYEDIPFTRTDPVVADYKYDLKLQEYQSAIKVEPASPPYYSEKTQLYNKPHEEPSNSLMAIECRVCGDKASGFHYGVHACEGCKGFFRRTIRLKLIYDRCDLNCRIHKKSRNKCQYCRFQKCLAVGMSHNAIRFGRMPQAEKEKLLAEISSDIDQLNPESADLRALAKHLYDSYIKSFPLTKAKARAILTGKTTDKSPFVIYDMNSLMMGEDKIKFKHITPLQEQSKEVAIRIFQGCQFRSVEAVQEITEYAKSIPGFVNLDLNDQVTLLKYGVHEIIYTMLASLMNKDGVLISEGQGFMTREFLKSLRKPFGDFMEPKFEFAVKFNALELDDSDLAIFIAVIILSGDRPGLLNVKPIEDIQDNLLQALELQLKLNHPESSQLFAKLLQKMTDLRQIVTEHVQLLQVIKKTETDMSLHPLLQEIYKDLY

Phosphodiesterase 3 = Phosphodiesterase 3 (Homo sapiens, UniProt Q14432); experiment: Phosphodiesterase 3 assay; format: biochemical
PRAK = PRAK (Homo sapiens, UniProt Q8IW41); experiment: kinase panel; format: biochemical
MRCK-ALPHA = MRCK-ALPHA (Homo sapiens, UniProt Q5VT25); experiment: kinase panel; format: biochemical
[1] = test system: panel of 250 protein kinases; experiment: Profiling against a panel of 250 protein kinases; format: biochemical; conditions: 1 μM EAI045
PAK5 = PAK5 (Homo sapiens, UniProt Q9P286); experiment: kinase panel; format: biochemical
CAMK1A = CAMK1A (Homo sapiens, UniProt Q14012); experiment: kinase panel; format: biochemical
SGK2 = SGK2 (Homo sapiens, UniProt Q9HBY8); experiment: kinase panel; format: biochemical
PIM2 = PIM2 (Homo sapiens, UniProt Q9P1W9); experiment: kinase panel; format: biochemical
SRPK1 = SRPK1 (Homo sapiens, UniProt Q96SB4); experiment: kinase panel; format: biochemical
SRPK1, sequence (Q96SB4 whole entry): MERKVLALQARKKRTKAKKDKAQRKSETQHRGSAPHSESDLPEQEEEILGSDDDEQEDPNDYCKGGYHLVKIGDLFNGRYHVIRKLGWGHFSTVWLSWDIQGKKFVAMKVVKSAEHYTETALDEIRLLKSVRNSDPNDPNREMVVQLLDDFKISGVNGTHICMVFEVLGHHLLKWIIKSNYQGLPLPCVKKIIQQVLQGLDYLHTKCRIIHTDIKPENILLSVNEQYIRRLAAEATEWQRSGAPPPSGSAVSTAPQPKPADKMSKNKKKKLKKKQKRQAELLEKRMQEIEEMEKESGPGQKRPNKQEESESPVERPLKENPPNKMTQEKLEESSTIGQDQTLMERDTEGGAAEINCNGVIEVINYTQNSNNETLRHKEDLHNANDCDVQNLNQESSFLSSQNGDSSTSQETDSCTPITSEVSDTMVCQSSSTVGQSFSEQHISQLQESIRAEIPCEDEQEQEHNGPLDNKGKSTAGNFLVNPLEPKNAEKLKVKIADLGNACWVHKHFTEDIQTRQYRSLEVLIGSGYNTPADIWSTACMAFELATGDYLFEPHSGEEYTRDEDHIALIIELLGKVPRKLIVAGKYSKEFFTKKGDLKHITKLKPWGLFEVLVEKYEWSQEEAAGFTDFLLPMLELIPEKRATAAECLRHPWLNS

PLK1 = PLK1 (Homo sapiens, UniProt P53350); experiment: kinase panel; format: biochemical
[2] = target: Pregnane X Receptor (PXR; SXR) (Homo sapiens, UniProt O75469); experiment: Pregnane X Receptor; format: binding
LATS2 = LATS2 (Homo sapiens, UniProt Q9NRM7); experiment: kinase panel; format: biochemical
PI3K-BETA = PI3K-BETA (Homo sapiens, UniProt P42338); experiment: kinase panel; format: biochemical
MARK1 = MARK1 (Homo sapiens, UniProt Q9P0L2); experiment: kinase panel; format: biochemical
JNK1 = JNK1 (Homo sapiens, UniProt P45983); experiment: kinase panel; format: biochemical
PKC-GAMMA = PKC-GAMMA (Homo sapiens, UniProt P05129); experiment: kinase panel; format: biochemical
IRR = IRR (Homo sapiens, UniProt P14616); experiment: kinase panel; format: biochemical
IRR, sequence (P14616 27-1297): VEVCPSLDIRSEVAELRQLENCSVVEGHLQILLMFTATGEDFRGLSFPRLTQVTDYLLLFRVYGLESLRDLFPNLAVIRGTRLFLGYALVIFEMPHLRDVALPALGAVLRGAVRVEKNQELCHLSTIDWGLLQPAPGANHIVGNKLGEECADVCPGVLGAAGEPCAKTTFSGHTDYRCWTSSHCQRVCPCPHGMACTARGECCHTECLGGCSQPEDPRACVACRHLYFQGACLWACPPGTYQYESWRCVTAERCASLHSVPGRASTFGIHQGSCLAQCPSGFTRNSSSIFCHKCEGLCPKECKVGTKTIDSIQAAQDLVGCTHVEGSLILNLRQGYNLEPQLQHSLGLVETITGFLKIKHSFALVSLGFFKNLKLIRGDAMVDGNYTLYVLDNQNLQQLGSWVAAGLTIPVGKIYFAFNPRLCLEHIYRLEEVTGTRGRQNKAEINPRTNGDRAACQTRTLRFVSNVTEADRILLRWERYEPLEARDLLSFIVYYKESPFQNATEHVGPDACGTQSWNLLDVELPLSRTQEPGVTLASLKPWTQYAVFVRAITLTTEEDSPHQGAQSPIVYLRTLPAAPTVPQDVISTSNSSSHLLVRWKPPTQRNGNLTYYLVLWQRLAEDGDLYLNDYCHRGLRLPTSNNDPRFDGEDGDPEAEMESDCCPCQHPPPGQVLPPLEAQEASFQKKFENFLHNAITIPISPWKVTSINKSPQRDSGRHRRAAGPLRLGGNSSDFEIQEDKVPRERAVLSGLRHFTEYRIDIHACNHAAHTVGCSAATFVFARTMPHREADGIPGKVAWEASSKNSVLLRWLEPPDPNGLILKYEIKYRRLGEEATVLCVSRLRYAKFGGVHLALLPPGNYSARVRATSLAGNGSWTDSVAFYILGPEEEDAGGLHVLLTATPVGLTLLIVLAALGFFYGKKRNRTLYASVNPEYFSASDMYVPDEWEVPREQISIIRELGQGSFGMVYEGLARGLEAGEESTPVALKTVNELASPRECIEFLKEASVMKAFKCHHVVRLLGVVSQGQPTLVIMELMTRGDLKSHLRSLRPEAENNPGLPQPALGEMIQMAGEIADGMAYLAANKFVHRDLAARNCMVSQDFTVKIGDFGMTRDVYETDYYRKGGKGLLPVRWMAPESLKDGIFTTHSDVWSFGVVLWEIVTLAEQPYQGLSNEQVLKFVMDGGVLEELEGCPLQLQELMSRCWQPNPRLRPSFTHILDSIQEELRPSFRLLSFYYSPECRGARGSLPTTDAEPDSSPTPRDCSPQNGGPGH

CDK2-CYCLINE = CDK2-CYCLINE (Homo sapiens, UniProt P24941); experiment: kinase panel; format: biochemical
TIE2 = TIE2 (Homo sapiens, UniProt Q02763); experiment: kinase panel; format: biochemical
HIPK4 = HIPK4 (Homo sapiens, UniProt Q8NE63); experiment: kinase panel; format: biochemical
HIPK4, sequence (Q8NE63 whole entry): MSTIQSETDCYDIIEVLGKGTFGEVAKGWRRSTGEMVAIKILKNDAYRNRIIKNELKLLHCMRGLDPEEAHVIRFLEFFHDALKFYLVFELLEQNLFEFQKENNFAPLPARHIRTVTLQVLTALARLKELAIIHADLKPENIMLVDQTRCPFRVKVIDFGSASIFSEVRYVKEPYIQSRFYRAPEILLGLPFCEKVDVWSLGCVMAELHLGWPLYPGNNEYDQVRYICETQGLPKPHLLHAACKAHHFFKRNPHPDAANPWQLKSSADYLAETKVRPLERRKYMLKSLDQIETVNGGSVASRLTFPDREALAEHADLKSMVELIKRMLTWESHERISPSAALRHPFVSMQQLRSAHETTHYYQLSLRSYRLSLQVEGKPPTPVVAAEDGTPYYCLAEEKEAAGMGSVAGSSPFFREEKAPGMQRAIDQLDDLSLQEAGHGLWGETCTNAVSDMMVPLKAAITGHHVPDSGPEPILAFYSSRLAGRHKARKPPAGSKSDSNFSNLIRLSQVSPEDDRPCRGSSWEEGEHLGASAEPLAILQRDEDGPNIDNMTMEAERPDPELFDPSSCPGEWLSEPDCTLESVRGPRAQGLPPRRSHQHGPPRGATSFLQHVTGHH

MAP4K5 = MAP4K5 (Homo sapiens, UniProt Q9Y4K4); experiment: kinase panel; format: biochemical
NEK3 = NEK3 (Homo sapiens, UniProt P51956); experiment: kinase panel; format: biochemical
NEK3, sequence (P51956 whole entry): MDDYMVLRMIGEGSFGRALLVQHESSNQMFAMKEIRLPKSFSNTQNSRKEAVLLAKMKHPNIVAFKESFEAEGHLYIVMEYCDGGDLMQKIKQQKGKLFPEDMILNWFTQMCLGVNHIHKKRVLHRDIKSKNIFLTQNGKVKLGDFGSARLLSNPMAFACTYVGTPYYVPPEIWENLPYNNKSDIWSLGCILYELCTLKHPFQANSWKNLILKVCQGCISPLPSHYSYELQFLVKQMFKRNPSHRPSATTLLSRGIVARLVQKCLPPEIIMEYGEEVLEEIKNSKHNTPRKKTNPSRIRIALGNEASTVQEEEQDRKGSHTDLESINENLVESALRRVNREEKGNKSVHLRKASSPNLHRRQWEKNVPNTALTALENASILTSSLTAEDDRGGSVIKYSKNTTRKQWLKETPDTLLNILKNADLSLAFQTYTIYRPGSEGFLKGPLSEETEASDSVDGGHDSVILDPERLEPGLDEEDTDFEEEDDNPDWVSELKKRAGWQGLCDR

PKC-THETA = PKC-THETA (Homo sapiens, UniProt Q04759); experiment: kinase panel; format: biochemical
EGFR = EGFR (Homo sapiens, UniProt P00533); experiment: kinase panel; format: biochemical
PKN2 = PKN2 (Homo sapiens, UniProt Q16513); experiment: kinase panel; format: biochemical
P38-GAMMA = P38-GAMMA (Homo sapiens, UniProt P53778); experiment: kinase panel; format: biochemical
P38-GAMMA, sequence (P53778 whole entry): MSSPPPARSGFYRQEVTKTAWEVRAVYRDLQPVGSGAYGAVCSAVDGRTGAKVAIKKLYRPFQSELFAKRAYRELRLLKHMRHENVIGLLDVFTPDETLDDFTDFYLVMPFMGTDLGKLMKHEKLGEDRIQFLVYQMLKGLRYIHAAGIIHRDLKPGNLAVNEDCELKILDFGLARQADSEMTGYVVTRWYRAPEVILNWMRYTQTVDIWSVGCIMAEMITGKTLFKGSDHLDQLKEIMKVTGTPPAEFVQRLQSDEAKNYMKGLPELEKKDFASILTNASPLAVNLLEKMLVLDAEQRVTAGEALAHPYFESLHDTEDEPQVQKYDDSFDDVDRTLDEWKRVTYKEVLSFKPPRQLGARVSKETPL

PRKX = PRKX (Homo sapiens, UniProt P51817); experiment: kinase panel; format: biochemical
P38-ALPHA = P38-ALPHA (Homo sapiens, UniProt Q16539); experiment: kinase panel; format: biochemical
Progesterone Receptor = Progesterone Receptor (Homo sapiens, UniProt P06401); experiment: Progesterone Receptor agonist assay; format: cell-based
CAMK2A = CAMK2A (Homo sapiens, UniProt Q9UQM7); experiment: kinase panel; format: biochemical
AKT1 = AKT1 (Homo sapiens, UniProt P31749); experiment: kinase panel; format: biochemical
AKT1, sequence (P31749 whole entry): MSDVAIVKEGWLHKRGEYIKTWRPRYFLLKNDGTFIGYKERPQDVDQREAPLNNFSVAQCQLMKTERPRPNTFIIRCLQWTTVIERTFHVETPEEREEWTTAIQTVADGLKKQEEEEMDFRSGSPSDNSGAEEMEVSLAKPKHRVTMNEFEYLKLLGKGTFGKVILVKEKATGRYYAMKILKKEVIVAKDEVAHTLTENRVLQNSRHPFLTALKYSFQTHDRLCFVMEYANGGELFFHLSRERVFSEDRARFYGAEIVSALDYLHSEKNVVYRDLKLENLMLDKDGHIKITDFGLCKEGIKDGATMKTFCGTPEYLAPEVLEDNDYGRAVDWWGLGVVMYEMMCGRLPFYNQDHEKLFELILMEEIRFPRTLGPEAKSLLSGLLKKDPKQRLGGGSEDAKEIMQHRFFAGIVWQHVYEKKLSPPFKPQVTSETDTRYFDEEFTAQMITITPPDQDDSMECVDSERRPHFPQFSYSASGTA

CK1-EPSILON = CK1-EPSILON (Homo sapiens, UniProt P49674); experiment: kinase panel; format: biochemical
Histamine H1 receptor = Histamine H1 receptor (Homo sapiens, UniProt P35367); experiment: Histamine H1 receptor assay; format: binding
ZAP70 = ZAP70 (Homo sapiens, UniProt P43403); experiment: kinase panel; format: biochemical
PI3K-GAMMA = PI3K-GAMMA (Homo sapiens, UniProt P48736); experiment: kinase panel; format: biochemical
PTK5 = PTK5 (Homo sapiens, UniProt P42685); experiment: kinase panel; format: biochemical

**Q.** With `O=C(Nc1nccs1)C(c1cc(F)ccc1O)N1Cc2ccccc2C1=O` (centres unmarked) [EAI045, 2-(5-fluoro-2-hydroxyphenyl)-2-(1-oxo-2,3-dihydro-1H-isoindol-2-yl)-N-(1,3-thiazol-2-yl)acetamide] as the compound, how does the IC50 (H1 receptor) read?
**A.** > 30 µM

**Q.** What about the inhibition at 1 µM (DYRK1A) of the same compound?
**A.** 0%

**Q.** And the inhibition at 1 µM (EPH-A4)?
**A.** 0%

**Q.** And the inhibition at 1 µM (CDK6-CYCLIND3)?
**A.** 2%

**Q.** What about the inhibition at 1 µM (IRAK1) of the same compound?
**A.** 4%

**Q.** And the inhibition at 1 µM (GRK6)?
**A.** 0%

**Q.** And the inhibition at 1 µM (FGFR3)?
**A.** 1%

**Q.** What about the IC50 (PPARgamma Receptor) of the same compound?
**A.** > 30 µM

**Q.** What about the IC50 (Phosphodiesterase 3) of the same compound?
**A.** > 30 µM

**Q.** What about the inhibition at 1 µM (PRAK) of the same compound?
**A.** 0%

**Q.** And the inhibition at 1 µM (MRCK-ALPHA)?
**A.** 0%

**Q.** What about the “inhibition of other kinases in the panel” value [1] of the same compound?
**A.** ≤ 20%

**Q.** What about the inhibition at 1 µM (PAK5) of the same compound?
**A.** 0%

**Q.** And the inhibition at 1 µM (CAMK1A)?
**A.** 0%

**Q.** What about the inhibition at 1 µM (SGK2) of the same compound?
**A.** 0%

**Q.** What about the inhibition at 1 µM (PIM2) of the same compound?
**A.** 2%

**Q.** And the inhibition at 1 µM (SRPK1)?
**A.** 0%

**Q.** And the inhibition at 1 µM (PLK1)?
**A.** 7%

**Q.** And the IC50 [2]?
**A.** 7 µM

**Q.** What about the inhibition at 1 µM (LATS2) of the same compound?
**A.** 2%

**Q.** And the inhibition at 1 µM (PI3K-BETA)?
**A.** 0%

**Q.** What about the inhibition at 1 µM (MARK1) of the same compound?
**A.** 0%

**Q.** And the inhibition at 1 µM (JNK1)?
**A.** 0%

**Q.** And the inhibition at 1 µM (PKC-GAMMA)?
**A.** 0%

**Q.** What about the inhibition at 1 µM (IRR) of the same compound?
**A.** 0%

**Q.** What about the inhibition at 1 µM (CDK2-CYCLINE) of the same compound?
**A.** 0%

**Q.** What about the inhibition at 1 µM (TIE2) of the same compound?
**A.** 0%

**Q.** And the inhibition at 1 µM (HIPK4)?
**A.** 0%

**Q.** And the inhibition at 1 µM (MAP4K5)?
**A.** 13%

**Q.** What about the inhibition at 1 µM (NEK3) of the same compound?
**A.** 0%

**Q.** What about the inhibition at 1 µM (PKC-THETA) of the same compound?
**A.** 0%

**Q.** And the inhibition at 1 µM (EGFR)?
**A.** 7%

**Q.** And the inhibition at 1 µM (PKN2)?
**A.** 1%

**Q.** What about the inhibition at 1 µM (P38-GAMMA) of the same compound?
**A.** 2%

**Q.** What about the inhibition at 1 µM (PRKX) of the same compound?
**A.** 3%

**Q.** And the inhibition at 1 µM (P38-ALPHA)?
**A.** 0%

**Q.** And the IC50 (Progesterone Receptor)?
**A.** > 30 µM

**Q.** What about the inhibition at 1 µM (CAMK2A) of the same compound?
**A.** 2%

**Q.** What about the inhibition at 1 µM (AKT1) of the same compound?
**A.** 0%

**Q.** And the inhibition at 1 µM (CK1-EPSILON)?
**A.** 0%

**Q.** And the IC50 (Histamine H1 receptor)?
**A.** > 30 µM

**Q.** And the inhibition at 1 µM (ZAP70)?
**A.** 1%

**Q.** What about the inhibition at 1 µM (PI3K-GAMMA) of the same compound?
**A.** 0%

**Q.** What about the inhibition at 1 µM (PTK5) of the same compound?
**A.** 0%
